Measured values reported in patent US20230059463A1, “3-(2-BROMO-4-ALKYNYL-6-ALKOXYPHENYL)-SUBSTITUTED 5-SPIROCYCLOHEXYL-3-PYRROLIN-2-ONES AND THEIR USE AS HERBICIDES” (Bayer Aktiengesellschaft, priority 2019, published 2023).

Columns and labels:
Format in all cases: in vivo
Echinochloa crus-galli [1] = test: Post-emergence herbicidal effect; conditions: 80 g/ha, post-emergence at one-leaf stage, assessed visually after about 3 weeks; 100% = plants have died, 0% = like control plants
Experimental: (§1) Seeds of monocotyledonous and dicotyledonous weed and crop plants are laid out in sandy loam soil in wood-fiber pots, covered with soil and cultivated in a greenhouse under good growth conditions. 2 to 3 weeks after sowing, the test plants are treated at the one-leaf stage. The compounds of the invention, formulated in the form of wettable powders (WP) or as emulsion concentrates (EC), are then sprayed onto the green parts of the plants as aqueous suspension or emulsion at a water application rate equating to 600 to 800 l/ha with addition of 0.2% wetting agent. After the test plants have been left to stand in the greenhouse under optimal growth conditions for about 3 weeks, the action of the preparations is assessed visually in comparison to untreated controls (herbicidal action in per cent (%): 100% activity=the plants have died, 0% activity=like control plants).

Lolium rigidum [2] = test: Post-emergence herbicidal effect; conditions: 80 g/ha, post-emergence at one-leaf stage, assessed visually after about 3 weeks; 100% = plants have died, 0% = like control plants
Experimental: as §1

Setaria viridis [3] = test: Post-emergence herbicidal effect; conditions: 80 g/ha, post-emergence at one-leaf stage, assessed visually after about 3 weeks; 100% = plants have died, 0% = like control plants
Experimental: as §1

Alopecurus myosuroides [4] = test: Post-emergence herbicidal effect; conditions: 80 g/ha, post-emergence at one-leaf stage, assessed visually after about 3 weeks; 100% = plants have died, 0% = like control plants
Experimental: as §1

Hordeum murinum [5] = test: Post-emergence herbicidal effect; conditions: 80 g/ha, post-emergence at one-leaf stage, assessed visually after about 3 weeks; 100% = plants have died, 0% = like control plants
Experimental: as §1

Echinochloa crus-galli [6] = test: Pre-emergence herbicidal effect; conditions: 80 g/ha, scored visually after 3 weeks, 100% = plants have died, 0% = like control plants
Excerpt: (§2) Seeds of monocotyledonous and dicotyledonous weed plants and crop plants are laid out in sandy loam soil in wood-fiber pots and covered with soil. The compounds of the invention, formulated in the form of wettable powders (WP) or as emulsion concentrates (EC), are then applied to the surface of the covering soil as aqueous suspension or emulsion at a water application rate equating to 600 to 800 L/ha with addition of 0.2% wetting agent.
(§3) After the treatment, the pots are placed in a greenhouse and kept under good growth conditions for the trial plants. The damage to the test plants is scored visually after a test period of 3 weeks by comparison with untreated controls (herbicidal activity in percent (%): 100% activity=the plants have died, 0% activity=like control plants).

Avena fatua = test: Pre-emergence herbicidal effect; conditions: 80 g/ha, scored visually after 3 weeks, 100% = plants have died, 0% = like control plants
Excerpt: as §2, §3

Lolium rigidum [7] = test: Pre-emergence herbicidal effect; conditions: 80 g/ha, scored visually after 3 weeks, 100% = plants have died, 0% = like control plants
Excerpt: as §2, §3

Setaria viridis [8] = test: Pre-emergence herbicidal effect; conditions: 80 g/ha, scored visually after 3 weeks, 100% = plants have died, 0% = like control plants
Excerpt: as §2, §3

Alopecurus myosuroides [9] = test: Pre-emergence herbicidal effect; conditions: 80 g/ha, scored visually after 3 weeks, 100% = plants have died, 0% = like control plants
Excerpt: as §2, §3

Hordeum murinum [10] = test: Pre-emergence herbicidal effect; conditions: 80 g/ha, scored visually after 3 weeks, 100% = plants have died, 0% = like control plants
Excerpt: as §2, §3

Digitaria sanguinalis = test: Post-emergence herbicidal effect; conditions: 80 g/ha, post-emergence at one-leaf stage, assessed visually after about 3 weeks; 100% = plants have died, 0% = like control plants
Experimental: as §1

Row | Compound | Post-emergence action against ECHCG (herbicidal action in per cent) (Echinochloa crus-galli [1]) | Post-emergence action against LOLRI (herbicidal action in per cent) (Lolium rigidum [2]) | Post-emergence action against SETVI (herbicidal action in per cent) (Setaria viridis [3]) | Post-emergence action against ALOMY (herbicidal action in per cent) (Alopecurus myosuroides [4]) | Post-emergence action against HORMU (herbicidal action in per cent) (Hordeum murinum [5]) | Pre-emergence action against ECHCG (herbicidal activity in percent) (Echinochloa crus-galli [6]) | Pre-emergence action against AVEFA (herbicidal activity in percent) (Avena fatua) | Pre-emergence action against LOLRI (herbicidal activity in percent) (Lolium rigidum [7]) | Pre-emergence action against SETVI (herbicidal activity in percent) (Setaria viridis [8]) | Pre-emergence action against ALOMY (herbicidal activity in percent) (Alopecurus myosuroides [9]) | Pre-emergence action against HORMU (herbicidal activity in percent) (Hordeum murinum [10]) | Post-emergence action against DIGSA (herbicidal action in per cent) (Digitaria sanguinalis)
1 | CC#Cc1cc(Br)c(C2=C(O)C3(CCCC(OCCC)C3)NC2=O)c(OC)c1 (stereo not drawn) [Example 1.1.09, 3-[2-Bromo-6-methoxy-4-(prop-1-yn-1-yl)phenyl]-7-propoxy-1-azaspiro[4.5]decane-2,4-dione] | 90% | 90% | 90% | 90% | 100% | 100% | 100% | 100% | 100% | 100% | 100% | 
2 | CC#Cc1cc(Br)c(C2=C([O-])C3(CCCC(OCCC)C3)NC2=O)c(OC)c1.[Na+] (stereo not drawn) [Example 1.1.10] | 100% | 90% | 90% | 90% | 100% | 100% | 100% | 100% | 100% | 90% | 100% | 
3 | CC#Cc1cc(Br)c(C2=C(OC(=O)OCC)C3(CCCC(OCCC)C3)NC2=O)c(OC)c1 (stereo not drawn) [Example 1.1.11, 3-[2-Bromo-6-methoxy-4-(prop-1-yn-1-yl)phenyl]-2-oxo-7-propoxy-1-azaspiro[4.5]dec-3-en-4-yl ethyl carbonate] |  |  |  |  | 100% |  |  |  |  |  |  | 
4 | CC#Cc1cc(Br)c(C2=C(OC(=O)C(C)C)C3(CCCC(OCCC)C3)NC2=O)c(OC)c1 (stereo not drawn) [Example 1.1.12] |  |  |  |  |  | 100% | 90% | 100% | 100% | 100% | 100% | 
5 | COCCOC1CCCC2(C1)NC(=O)C(c1c(Br)cc(C#CBr)cc1OC)=C2O (stereo not drawn) [Example 1.1.23] | 90% | 80% | 100% | 90% |  |  |  | 90% | 100% | 90% |  | 80%
6 | CCOC(=O)OC1=C(c2c(Br)cc(C#CBr)cc2OC)C(=O)NC12CCCC(OCCOC)C2 (stereo not drawn) [Example 1.1.25] | 90% | 80% | 90% | 90% |  |  |  | 90% | 100% | 80% |  | 80%
